Test results published in patent US8883798B2, “Pyrimidine compounds inhibiting the formation of nitric oxide and prostaglandin E2, method of production thereof and use thereof” (Ustav Organicke Chemie a Biochemie Akademie Ved CR, V.V.I., priority 2011, dated 2014).

Key:
[1] = tested on: production of prostaglandin E2 (PGE2); experiment: Production of prostaglandin E2 (PGE2) in cultures of mouse peritoneal cells stimulated with LPS (ELISA kit); type: cell-based, mice; details: Table 3A, substance 50 μmol·l^−1, 6 h
Procedure, shortened: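 C57BL/6 mouse peritoneal cells (3×10^6/mL) stimulated with LPS (10 ng/mL). PGE2 measured by ELISA.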

[2] = tested on: Salmonella typhimurium TA 98 and TA 100, Escherichia coli WP2 uvrA; details: all strains, all tested concentrations, with and without metabolic activation
Method: With compound 28, its possible mutagenicity (genotoxicity) was assessed using the standard bacterial reverse mutation test. According to Council Regulation (ES) No. 440/2008, stipulating the test methods according to the European Parliament and Council regulation (ES), the method used was B.13/14, Mutagenicity—Reverse Mutation Test Using Bacteria, which is described in the same way also in the OECD Test Guideline No. 471.
[…] The experiments were conducted without using metabolic activation and after activation with supernatant S9 from […] livers and with mixtures of cofactors (NADP and glucoso-6-phosphate) to determine the mutagenicity of the metabolic products of the compound tested. Supernatant S9 was prepared according to the literature [Mutat. Res. 113, 173-215, 1983].
The principle of the test is to detect possible revertants created by reverse mutation, which would be induced in the bacterial culture by the tested compound. Specially constructed bacterial strains are used, carrying mutations in the place for his (trp), which are not capable of forming colonies on the minimum plates without histidine or tryptophan. […] Mutagenic potential is given by the growing number of revertants in the influenced groups in comparison with a negative control, and/or in dependence on the growing number of revertants on the dose of the tested compound.
Bacterial testers, types Salmonella typhimurium TA 98 (CCM 3811) and Escherichia coli WP2 uvrA (CCM 4751), were acquired from the Czech Collection of Microorganisms of Masaryk University, Brno and the strain Salmonella typhimurium TA100 (CIP 103796, lot No. 1008) from the Biological Resource Center, Institut Pasteur in Paris (CRBIP).

[3] = tested on: production of nitric oxide (NO); experiment: Production of nitric oxide (NO) in cultures of mouse peritoneal cells stimulated with IFN-γ plus LPS (Griess reagent); type: cell-based, mice; details: Table 3A; substance 50 μmol·l^−1; IFN-g plus LPS; 24 h
Procedure, shortened: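 C57BL/6 mouse peritoneal cells (2×10^6/mL) stimulated with IFN-γ (5000 pg/mL) plus LPS (100 pg/mL), compounds at 50 μmol·l^−1. Nitrite measured by Griess reagent after 24 h, expressed as % of stimulated control (set 100%); IC50 is concentration reducing NO by 50%.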

| SMILES | Production of prostaglandins in % of the controls [1] | Mutagenicity (reverse mutation) [2] | Production of nitric oxide in % of the controls [3] |
| --- | --- | --- | --- |
| CCCCc1c(Cl)nc(N)nc1Cl [Substance 28] | 13.14 ± 0.13 % of the controls | non-mutagenous | 53.23 ± 5.79 % of the controls |
| CCCCc1c(Cl)nc(NC=O)nc1Cl [Substance 51] | 5.22 ± 2.66 % of the controls | non-mutagenous | 8.37 ± 2.77 % of the controls |
